Measurements: patent US20200123127A1, “REMOVAL OF SENESCENCE-ASSOCIATED MACROPHAGES” (EVERON BIOSCIENCES, INC., priority 2016, published 2020)

Legend:
[1] = system: chronologically aging mice; assay: Survival and frailty index of chronologically aging mice; assay type: in vivo, mouse; settings: for survival rates vs control groups: OT-82: after 6 courses, 111 weeks of age, asenins: treated weeks 77-97, at 112 weeks of age
Method: FIG. 11. OT-82 effects on survival and frailty index of old mice. (A) Male and female mice were treated with OT-82 or with vehicle alone as a negative control. Survival was measured over the course of six treatments.
FIG. 12. Effects of asenins TA-3899 and TA-4812 on survival and frailty index of old mice. Results are provided on a background of FI of mice of the similar age, aged normally without any treatments (black color). Difference between FI of males receiving 3899 and intact mice is statistically significant (p=0.02).
Frailty Index (FI) was determined for individual mice as described previously (Antoch et al. Aging. 2017; 9: 1-12) using a 26 week-old group as a “young mouse” reference. For each mouse, various parameters were measured. These parameters include non-invasive measurements, including age, body weight, grip strength, diastolic blood pressure, and tail blood flow. Additional blood chemistry measurements were also determined, including white blood cell count, neutrophil count, neutrophil percentage, lymphocyte percentage, monocyte percentage, eosinophil percentage, red blood cell count, hemoglobin, hematocrit, mean corpuscular volume, mean corpuscular hemoglobin, mean corpuscular hemoglobin concentration, platelet count, and mean platelet volume. For each parameter mean value and standard deviation were calculated. Animals differing by more than one standard deviation (STDEV) from mean value in any single parameter were excluded from the reference group. Values for each measured parameter were compared with corresponding values for the reference group and assigned a score. The number of deficits an individual mouse expressed was calculated as a ratio of total number of parameters measured and this value is referred to as the frailty index.
Asenins TA-3899 and TA-4812 were evaluated for their effects on survival and frailty index in a model of chronologic aging mice. Treatment lasted for 20 weeks (weeks 77-97 of age). […] Frailty index of males was measured at week 109.

[2] = system: B16 melanoma lung metastasis in C57BL/6 mice; assay: Senescence-enhanced B16 lung metastasis model; assay type: in vivo, mouse
Description: FIG. 4. Efficacy of A1.1 analogs in the senescence-enhanced B16 metastasis model. (A) Quantification of metastatic nodules by H&E morphometric analysis, and the resulting reduction in tumor burden (%) compared to vehicle control. (B) Quantitation morphometric analysis of lungs excised from irradiated mice treated with analogs of A1.1 post-inoculation of B16 cell intravenously, along with quantitation of morphometric analysis, are provided. (C) In vitro testing of A1.1 and analogs against the growth and viability of B16 cells, as assessed by the resazurin viability assay after 72 hour exposure to compounds compared to non-treated controls.
The role of senescent cells in the promotion of metastatic potential of cancer cells has also been described [Patent WO 2013090645 A1; Campisi, J. (2015). Cancer and Aging: Rival Demons]. […] To test the efficacy of A1.1, irradiated (11 Gy followed by bone-marrow transplantation) and non-irradiated C57BL/6 mice received B16 melanoma cells via tail vein injection were subsequently (72 hours later) administered A1.1 (20 mg/kg) intraperitoneally once a day for 5 consecutive days.
Synthesized analogs were also tested in vivo, to assess whether optimized structures are capable of showing activity against senescence-mediated B16 lung metastasis in irradiated mice (FIG. 4B). Analogs A1.1, A1.12, A1.13, A1.14, A1.15, and A1.6 were administered at 20 mg/kg intraperitoneally for 5 consecutive days. In addition to A1.1, treatment with analogs A1.12, A1.14 and A1.15 at 20 mg/kg reduced the metastatic burden in the lungs of irradiated mice by more than 2-fold.

[3] = system: p16(Ink4a) expression in macrophages; assay: Immunomodulators in vivo in p16Ink4a/Luc mice bearing alginate-encapsulated cells; design: species or system mouse; settings: for in vivo bioluminescence / elevated p16(Ink4a) expression: after 10 day induction of bioluminescence, Poly(I:C) 2 and 10 mg/kg intraperitoneally
Method: Mice were injected intraperitoneally with a 200 μl solution of 15 mg/mL D-luciferin potassium salt (Syd Labs; Boston, Mass.) in D-PBS without calcium and magnesium. At 10 minutes post-injection, isoflurane-anesthetized mice were placed into the IVIS Spectrum in vivo bioluminescent imaging system (PerkinElmer; Waltham, Mass.) for detection of luciferase activity (60-second exposure). Bioluminescence in p16^LUC mice was quantified as total flux (p/s) of luminescent signal from the abdomen using via Living Image® software.
We next investigated whether p16(Ink4a) expression was susceptible to M1-mediated regulation in vivo using immunotherapeutic agent Poly(I:C). Upon intraperitoneal injection of alginate-encapsulated cells, p16^Iak4a/Luc mice accumulate luciferase-positive macrophages that can be monitored in vivo via the IVIS imaging system. […] Further, treatment with Poly(I:C) had no effect on β-galactosidase activity nor viability (>95%) of lavage cells, consistent with in vitro data.

Q: How did the “survival rates vs control groups” value [1] turn out when COc1ccc(C2CC(=NO)c3c(SCc4ccccc4)sc(C(=O)NCc4cccc(F)c4)c3C2)cc1 (stereo not shown) [Example A1.6, 3-(Benzylthio)-N-(3-fluorobenzyl)-4-(hydroxyimino)-6-(4-methoxyphenyl)-4,5,6,7-tetrahydrobenzo[c]thiophene-1-carboxamide] was run?
A: no statistical significance

Q: What about the “reduction of B16 metastatic load in the lungs of irradiated mice vs vehicle” value ([2]; 20 mg/kg intraperitoneally once a day for 5 consecutive days, irradiated (11 Gy) C57BL/6 mice) of the same molecule?
A: did not show a substantial decrease

Q: Which “in vivo bioluminescence / elevated p16(Ink4a) expression” value [3] does the source give for Poly(I:C) here?
A: complete abrogation of signal

Q: And the “viability of lavage cells” value ([3]; mouse, in vivo)?
A: > 95%

Q: What about the “β-galactosidase activity of lavage cells” value ([3]; mouse, in vivo) of the same molecule?
A: no effect

Q: What about the “proportion of CD11b+ F4/80+ macrophages” value ([3]; peritoneal lavage) of the same molecule?
A: no difference

Q: What about the “decrease in luciferase activity per lavage cell vs non-treated controls” value ([3]; peritoneal lavage cells) of the same molecule?
A: > 6 fold

Q: How did the “tumor burden in non-irradiated animals” value ([2]; 20 mg/kg intraperitoneally, 5 consecutive days, non-irradiated mice) turn out when CCOC(=O)c1sc(SCc2ccccc2)c2c1CC(c1ccc(OC)cc1)C/C2=N\O (stereo not shown) [Example A1.1] was run?
A: did not affect

Q: IFN-α was tested. Which “in vivo bioluminescence / elevated p16(Ink4a) expression” value [3] did it give?
A: abrogates

Q: Which results are given for O=C(NCCCc1cn[nH]c1)c1ccc(-c2ccncc2)c(C#Cc2ccc(F)cc2)c1 [OT-82]?
A: survival rates vs control groups [1]: no effects on survival rates; frailty index (FI) of males ([1]; OT-82, chronically aged mice): positive effects; survival of treated males ([1]; after 6 courses of treatment, 111 weeks of age (55% in vehicle control group)): 45%; survival of treated females ([1]; after 6 courses of treatment, 111 weeks of age (60% in vehicle group)): 65%
